# Test results as given in patent publication US12714698B2, “Compositions and methods for treating or preventing dermal disorders” (Drexel University, priority 2015, dated 2026).
# Tested on: Lung fibroblasts
# Assay: Senescence markers in lung fibroblasts exposed to NRTIs
# Format: cell-based, human
# Protocol: Cell culture experiments utilizing NRTIs were of the following design. Cultures of either human lung or cardiac fibroblasts were cultivated according to standard culture protocols for these cells (Cristofalo, et al., Journal of Tissue Culture Methods 1980, 6:117-121). Parallel sets of cultures were maintained in normal growth media or in normal growth media with the addition of 1 nM rapamycin. Cultures were maintained with 1 nM rapamycin (Enzo Biologicals) for two weeks before exposure to NRTIs. Cell cultures were exposed to NRTIs at indicated concentrations in individual experiments (generally 10-20 μg/ml) for 7 days, with a change of media and fresh NRTIs at day 4. Mitochondrial measurements, bioanalyzer measurements, immunoblotting for protein expression and phosphorylation status, and assays for senescence were performed at the end of this 7-day period.
# Cell culture reagents were from Cellgro, unless indicated. WI-38 fetal-lung primary human fibroblasts or human cardiac fibroblasts were grown in MEM supplemented with 10% fetal bovine serum, 1% L-glutamine, MEM vitamins, and MEM non-essential amino acids. Cells were maintained in a 37° C. in 5% CO2 incubator. For treatment studies, cells were treated with 1 nM rapamycin (Enzo Biologicals) for two weeks before treatment with NRTIs. […]
smiles,measurement,value
CO[C@H]1C[C@@H]2CC[C@@H](C)[C@@](O)(O2)C(=O)C(=O)N2CCCC[C@H]2C(=O)O[C@H]([C@H](C)C[C@@H]2CC[C@@H](O)[C@H](OC)C2)CC(=O)[C@H](C)/C=C(\C)[C@@H](O)[C@@H](OC)C(=O)[C@H](C)C[C@H](C)/C=C/C=C/C=C/1C [rapamycin],effect of rapamycin treatment on NRTI-induced senescence markers,protection
